Laboratory results: US11712456B2, “Hemp extract for treatment of pain in animals” (Portland Technology Holdings LLC, priority 2018, dated 2023)
Values joined by “and” are separate entries in the source; they are usually repeats but may differ in a detail not shown here. Identical values can stand only once.

Experiment: Feline safety study: cannabidiol quantification in serum and pharmacokinetics (LC-MS/MS)
Type: in vivo
Conditions: individual cats; oral administration of 2/mg/kg cannabidiol in capsule form
Description: On the first day of dosing, blood was collected for a PK analysis from 6 of the 8 cats. The most cooperative cats were selected for the PK analysis. […] Samples were placed into a red top clotting tube with no serum separator. […] The harvested serum was placed in cyrovials stored at −70° C. Each tube was labeled with the cat id, date of collection and collection time point. Samples were shipped overnight on dry ice to the Proteomics & Metabolomics Facility at Colorado State University.
Aliquots of feline serum were delivered to the facility on dry ice and stored at −80° C. upon receipt. […] 200 μL of cold (−20 C) 100% Acetonitrile (spiked with 60 ng/mL of d3-CBD) was added to each sample and vortexed at room temperature for 5 minutes. 200 μL of water was added and vortexed for an additional 5 minutes. 1 ml of 100% hexane was then added to each sample and vortexed for a final 5 minutes. […] The upper hexane layer was transferred to new-labeled glass vials (˜900 uL per sample), carefully avoiding the middle and lower layers. Samples were concentrated to dryness under N2 and resuspended in 60 μL of 100% acetonitrile.
An 8 point standard curve of CBD was generated in matrix background using a blank serum. Concentrations ranged from 0 ng/mL 1000 ng/mL (3.2× dilution series). 50 uL of each spiked serum sample was extracted as above.
LC-MS/MS was performed on a Waters Acquity M-Class UPLC coupled to a Waters Xevo TQ-S triple quadrupole mass spectrometer. […] Flow rate was 3.0 μL/min and injection volume was 2.0 μL. Samples were held at 6° C. in the autosampler, and the column was operated at 70° C. The MS was operated in selected reaction monitoring (SRM) mode, where a parent ion is selected by the first quadrupole, fragmented in the collision cell, then a fragment ion selected for by the third quadrupole. Product ions, collision energies, and cone voltages were optimized for each analyte by direct injection of individual synthetic standards. Inter-channel delay was set to 3 ms. The MS was operated in positive ionization mode with the capillary voltage set to 3.6 kV. […]
All Raw data files were imported into the Skyline open source software package. […] Peak areas were extracted for target compounds detected in biological samples and normalized to the peak area of the appropriate internal standard in each sample using in-house R Script (TQS-tools). CBD concentrations were calculated in nanograms per milliliter of extract (0.06 mL) and then back calculated to nanograms per mL of serum (0.05 mL of serum). […]
LOD are calculated based on the standard deviation of the response (Sy) of the 0 point calibration standard (i.e. 0 ng/mL CBD as an estimate on noise) and the slope of the calibration curve (S) at levels approximating the LOD according to the formula: LOD=3*(Sy/S). […]

C=C(C)[C@@H]1CCC(C)=C[C@H]1c1c(O)cc(CCCCC)cc1O [cannabidiol]
AUC 0-t = Area under the curve (0 time to time of last collection [24 hr]): 265.0 ng·h/mL and 54.2 ng·h/mL and 42.4 ng·h/mL and 212.2 ng·h/mL and 125.0 ng·h/mL and 194.1 ng·h/mL and 134.2 ng·h/mL and 60.2 ng·h/mL
Cmax = Maximum concentration: 8.8 ng/mL and 12.1 ng/mL and 75.3 ng/mL and 40.5 ng/mL and 53.3 ng/mL and 21.2 ng/mL
Tmax = Time of maximum concentration: 4 h and 1 h
T½ el = Half-life of elimination: 2.3 h and 1.3 h and 1.7 h
